Read-outs that look alike come from different tables or passages of the source. One block for each molecule: values may come before it.
Experiments:
HEK293 cells = assay: Protection against thapsigargin (TG)-induced cell death, HEK293; assay type: cell-based, human; conditions: compound 20 μM; thapsigargin 15 μM; 24 hrs
Procedure: (§1) Protection against Thapsigargin (TG)-induced Cell-death. Human embryonic kidney (HEK293) cells were grown in Dulbecco's Modified Eagle's Medium (DMEM) with 10% FBS and 1% antibiotic antimycotic solution (ABAM). Mouse neuroblastoma (N2a) cells were grown in 1:1 DMEM:OPTI-MEM® with 5% FBS and 1% ABAM. All cells were grown in 10% CO2 in a humidified environment of the incubator. Cells grown in 96-well plates were exposed to a test compound (20 μM) for 2 hrs before addition of thapsigargin (15 μM for HEK293 cells and 1 μM for N2a cells) to induce ER stress. After incubation in cell-culture incubator for 24 hrs, ALAMARBLUE® regent (10% v/v) was added to the wells. Fluorescence reading was taken 2 hrs after the addition of the ALAMARBLUE® regent. Cell-viability was calculated as a percentage of relative fluorescence unit (RFU) compared to control.
(§2) The results are summarized in Table 2, where A represents a value greater than 50% cell rescue, B represents a value between 10% to 50% cell rescue, C represents a value between 1% to 10% cell rescue, and D represents a value no greater than 1% cell rescue.

N2a cells [1] = assay: Protection against thapsigargin (TG)-induced cell death, N2a; assay type: cell-based, mouse; conditions: compound 20 μM; thapsigargin 1 μM; 24 hrs
Procedure: as §1, §2

N2a cells [2] = assay: Protection against hydrogen peroxide-induced cell death, N2a; assay type: cell-based, mouse; conditions: compound 40 μM; hydrogen peroxide 200 μM
Procedure: Protection against Hydrogen Peroxide-induced Cell-death. N2a cells grown in 96-well plates were exposed to a test compound (40 μM) for 2 hrs before addition of hydrogen peroxide (200 μM). After 40 min of incubation with hydrogen peroxide, ALAMARBLUE® regent (10% v/v) was added to the wells. Fluorescence reading was taken 2 hrs after the addition of the ALAMARBLUE® regent. Cell-viability was calculated as a percentage of relative fluorescence unit (RFU) compared to control.
as §2

SERCA (SR vesicles) = assay: Activation of SERCA, increase in Vmax; assay type: biochemical
Procedure: Test compounds were characterized over a range of concentrations using an NADH-linked, enzyme-coupled ATPase assay. Each well contained 2 mg or 7 mg of SR vesicles (optimized for skeletal or cardiac SR, respectively), 50 mM MOPS (pH 7.0), 100 mM KCl, 5 mM MgCl2, 1 mM EGTA, 0.2 mM NADH, 1 mM phosphoenol pyruvate, 5 IU pyruvate kinase, 5 IU lactate dehydrogenase, and 3.5 mg/mL A23187 (a calcium ionophore), and CaCl2 was added to set free [Ca2+] to the specific values. The assay was started upon addition of ATP at a final concentration of 5 mM, and read in a SpectraMax Plus microplate spectrophotometer and the ATPase activities were fitted using the Hill function.

CSM14.1 cells = assay: ER stress cell survival assay (thapsigargin); assay type: cell-based; conditions: for Cell Survival: compound 2 μM, about 15 μM thapsigargin, CSM14.1 cells;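 for cell survival: survival read as CellTiter-Glo luminescence after overnight incubation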
Procedure: ER Stress Cell Survival Assay
CSM14.1 cells were maintained in Complete Medium at 32° C.; wherein the Complete Medium contained Dulbecco's modified eagle medium (DMEM) with 10% fetal bovine serum (FSB), 1% L-glutamine, 100 IU/mL penicillin, and 100 μg/mL streptomycin. The cells were recovered from cultures by trypsinization and then seeded in 384 well plates (Greiner #781098) at a concentration of 1,000 cells/well in 20 μL of DMEM Assay Medium, wherein the DMEM Assay Medium contained 2% FBS, 100 IU/mL penicillin, and 100 μg/mL streptomycin. Seeding was performed using a MultiDrop Combi reagent broadcaster. The plates were incubated overnight at 32° C.
A test compound was prepared by 2-fold serial dilution in 100% DMSO using a BIOMEK® 2000 liquid handler (Beckman Coulter). A dose-response curve containing 10 concentrations of the test compound was obtained. Using a BIOMEK® FX liquid handler (Beckman Coulter), 2.5 μL of the test compound was transferred from the 100% DMSO serial dilution plate to an intermediate plate containing 47.5 μL of DMEM Assay Medium containing 2% FBS, 100 IU/mL penicillin, and 100 μg/mL streptomycin and mixed. To reduce or eliminate the interference from the compound's precipitation, 6 μL of the diluted compound was immediately transferred to the assay plate to achieve a high compound concentration of 100 μM in 99% DMEM Assay Medium and 1% DMSO. After the assay plates were incubated for 2 hrs, 4 μL of 112.5 μM thapsigargin (TG) (DMSO stock diluted into Assay TC Medium) was dispensed into each testing well with a MultiDrop Combi reagent broadcaster for a final concentration of about 15 μM TG. The tissue culture media (4 μL) containing vehicle only was transferred manually to each control cell using a 16 channel electronic pipette. […] High luminescence indicates cell survival.
Alternatively, a test compound was tested at a single compound concentration (e.g., 2 μM) to determine the effect of the compound on cell survival in comparison with vehicle.

human islet microtissues = assay: Protection of human pancreatic islets under cytokine stress; assay type: cell-based; conditions: 168 h, compound 5 μM, cytokine cocktail IL1-β, IFN-γ, TNF-α, 7 days, read-out: increase in viability over baseline (total ATP content)
Procedure: Human pancreatic islet microtissues treated with cytokines were used to model the conditions of Type 1 Diabetes in vitro. This study tested the effects of compounds on […] viability in human islets under cytokine stress. The model consisted of human islet microtissues from an HLA-A2 positive donor grown and separated in a 96-well plate (1 microtissue per well). The microtissues were treated for 7 days with a cocktail of cytokines (IL1-β 5 ng/mL, IFN-γ 25 ng/mL, TNF-α 25 ng/mL) and compound (5 μM) or vehicle. There were 6 microtissues treated per compound or vehicle. At day 7, the total ATP content was measured using CellTiter-Glo (Promega).

[3] = Pharmacokinetics in Sprague Dawley rats; assay type: in vivo, rat; conditions: rat; for AUC(0-t): read-out: AUC0-t; for MRT inf: read-out: MRT0-∞; for F: PO 10 mg/kg vs IV 2 mg/kg
Procedure: Blood was drawn at 5 min, 15 min, 30 min, 1 hr, 2 hrs, 4 hrs, 6 hrs, and 8 hrs into EDTA containing tubes and plasma was harvested by centrifugation. Plasma (25 μL) was treated with acetonitrile (125 μL) containing an internal standard. The sample was then centrifuged for 5 min at 4,000 rpm in a tabletop centrifuge and the filtrate was collected. The filtrate was injected onto a Thermo Betasil C18 HPLC column 5 (50×2.1 mm). Mobile Phase A was water with 0.1% formic acid. Mobile Phase B was acetonitrile with 0.1% formic acid. […] An API Sciex 4000 equipped with a turbo ion spray source was used for all analytical measurements. A positive ion MRM method was developed. Peak areas of the product ion were measured against the peak areas of the internal standard. Data was fit using WinNonLin (Pharsight Corporation, Mountain View, CA).

[4] = Sprague Dawley, in vivo, IV 2 mg/kg
[5] = Sprague Dawley, in vivo, PO 10 mg/kg

Compound: COc1ccc(C(=O)Nc2cccc3ccc(C)nc23)cc1 [Compound A8, 4-Methoxy-N-(2-methylquinolin-8-yl)benzamide]
HEK293 Cells (TG-induced) cell rescue (HEK293 cells): A (A represents a value greater than 50% cell rescue)
N2a Cells (TG-induced) cell rescue (N2a cells [1]): B (B represents a value between 10% to 50% cell rescue)
N2a Cells (H2O2-induced) cell rescue (N2a cells [2]): B (B represents a value between 10% to 50% cell rescue)
Increase in Vmax at 10 μM (SERCA (SR vesicles)): C′ (C′ represents an increase no greater than 20%)

AUC(0-inf) [3, 4]: 0.381 ± 0.066 µg·h/mL
Cmax [3, 4]: 4.42 ± 0.64 µM
Tmax [3, 4]: 1.2 min
half-life [3, 4]: 54 min
AUC(0-t) [3, 4]: 0.38 ± 0.066 µg·h/mL
MRT inf [3, 4]: 35.4 min
Vd ([3]; Sprague Dawley, in vivo, IV 2 mg/kg, read-out: Vz): 7.01 L/kg
AUC(0-inf) [3, 5]: 0.587 ± 0.12 µg·h/mL
Cmax [3, 5]: 1.69 ± 0.74 µM
Tmax [3, 5]: 15 min
AUC(0-t) [3, 5]: 0.583 ± 0.119 µg·h/mL
MRT inf [3, 5]: 67.8 min
F [3]: 31%
Compound: Cc1ccc(C(=O)Nc2cccc3ccc(C)nc23)c(Cl)c1 [Compound A17, 2-Chloro-4-methyl-N-(2-methylquinolin-8-yl)benzamide]
EC50 (CSM14.1 cells; dose-response): 20 to 100 µM
viability at 5 µM (human islet microtissues): 10 to 20%
Increase in Vmax at 10 μM (SERCA (SR vesicles)): A′ (A′ represents an increase greater than 50%)

AUC(0-inf) [3, 4]: 0.309 ± 0.017 µg·h/mL
Cmax [3, 4]: 3.85 ± 0.46 µM
Tmax [3, 4]: 1.2 min
clearance [3, 4]: 0.01 L/h/kg
half-life [3, 4]: 27 min
AUC(0-t) [3, 4]: 0.299 ± 0.017 µg·h/mL
MRT inf [3, 4]: 27.6 min
AUC(0-inf) [3, 5]: 0.385 ± 0.099 µg·h/mL
Cmax [3, 5]: 1.25 ± 0.4 µM
Tmax [3, 5]: 19.8 min
half-life [3, 5]: 26.4 min
AUC(0-t) [3, 5]: 0.375 ± 0.105 µg·h/mL
MRT inf [3, 5]: 45 min
F [3]: 25%
Compound: COc1c(C)cccc1C(=O)Nc1cccc2ccc(C)nc12 [Compound A19, 2-Methoxy-3-methyl-N-(2-methylquinolin-8-yl)benzamide]
viability at 5 µM (human islet microtissues): 20 to 50%
Increase in Vmax at 10 μM (SERCA (SR vesicles)): A′ (A′ represents an increase greater than 50%)

Compound: N#Cc1cccc(C(=O)Nc2cccc3cccnc23)c1 [Compound B3, 3-Cyano-N-(quinolin-8-yl)benzamide]
HEK293 Cells (TG-induced) cell rescue (HEK293 cells): A (A represents a value greater than 50% cell rescue)
N2a Cells (TG-induced) cell rescue (N2a cells [1]): B (B represents a value between 10% to 50% cell rescue)
N2a Cells (H2O2-induced) cell rescue (N2a cells [2]): B (B represents a value between 10% to 50% cell rescue)
Increase in Vmax at 10 μM (SERCA (SR vesicles)): C′ (C′ represents an increase no greater than 20%)

Compound: Cc1ccc2cccc(NC(=O)c3ccc(C#N)cc3)c2n1 [Compound B4, 4-Cyano-N-(2-methylquinolin-8-yl)benzamide]
HEK293 Cells (TG-induced) cell rescue (HEK293 cells): A (A represents a value greater than 50% cell rescue)
N2a Cells (TG-induced) cell rescue (N2a cells [1]): B (B represents a value between 10% to 50% cell rescue)
N2a Cells (H2O2-induced) cell rescue (N2a cells [2]): B (B represents a value between 10% to 50% cell rescue)

Compound: Cc1ccc2cccc(NC(=O)c3ccccc3C(F)(F)F)c2n1 [Compound C5, 2-Trifluoromethyl-N-(2-methylquinolin-8-yl)benzamide]
Cell Survival (CSM14.1 cells): B (B represents a value between 10% and 50%)
HEK293 Cells (TG-induced) cell rescue (HEK293 cells): A (A represents a value greater than 50% cell rescue)
N2a Cells (TG-induced) cell rescue (N2a cells [1]): A (A represents a value greater than 50% cell rescue)
N2a Cells (H2O2-induced) cell rescue (N2a cells [2]): B (B represents a value between 10% to 50% cell rescue)
Increase in Vmax at 10 μM (SERCA (SR vesicles)): B′ (B′ represents an increase between 20 to 50%)

Compound: Cc1ccc2cccc(NC(=O)c3ccc(C(F)(F)F)cc3)c2n1 [Compound C10, 4-Trifluoromethyl-N-(2-methylquinolin-8-yl)benzamide]
Cell Survival (CSM14.1 cells): D (D represents a value no greater than 1%)
HEK293 Cells (TG-induced) cell rescue (HEK293 cells): A (A represents a value greater than 50% cell rescue)
N2a Cells (TG-induced) cell rescue (N2a cells [1]): B (B represents a value between 10% to 50% cell rescue)
N2a Cells (H2O2-induced) cell rescue (N2a cells [2]): B (B represents a value between 10% to 50% cell rescue)
